# Experimental data taken from ChEMBL document CHEMBL1201862, “PubChem BioAssay data set” (2004).
# Active and inactive are the calls of the source.
# Columns and labels:
# [1] = test system: Vero; experiment: Vero E6 cell cytotoxicity, SAR follow-up, cytotoxicity control for West Nile virus antiviral project, synthesized analogs (AID 2244); assay type: functional; conditions: Chlorocebus sabaeus
# [2] = test system: Vero; experiment: cytotoxicity of synthesized analogs in Vero cells, SAR follow-up, cytotoxicity control for West Nile virus antiviral project, cell-based, set II (AID 2402); assay type: functional; conditions: Chlorocebus sabaeus
# [3] = test system: Vero; experiment: West Nile virus CPE inhibition, SAR follow-up, cell-based, synthesized analogs (AID 2238); assay type: functional; conditions: Chlorocebus sabaeus
# [4] = test system: Vero; experiment: host cell cytotoxicity of antiviral hits, dose response, cytotoxicity control for West Nile virus antiviral project, secondary assay (AID 1650); assay type: functional; conditions: Chlorocebus sabaeus
# [5] = A Cell Based Assay for the Identification of Probe candidate Compounds with Anti- Venezuelan Equine Encephalitis virus. [Related pubchem assays: 2409, 2419, 1621, 2238, 2405, 2024, 2065, 2402, 2414, 1635, 1650, 2244 ]; assay type: functional
# [6] = test system: Vero; experiment: cytotoxicity of synthesized analogs in Vero 76, SAR follow-up, cytotoxicity control for West Nile virus antiviral project, Vero 76 cells (AID 2414); assay type: functional; conditions: Chlorocebus sabaeus
# [7] = test system: Vero; experiment: West Nile virus antiviral activity, cell-based, CPE readout (AID 1621); assay type: functional; conditions: Chlorocebus sabaeus
# [8] = target: T1, Eukaryotic translation initiation factor 2-alpha kinase 3 (Homo sapiens, UniProt Q9NZJ5); experiment: Dose response cell-based high-throughput screening assay to measure PERK inhibition. [Related pubchem assays: 1416 ]; assay type: functional
# T1 sequence (Q9NZJ5 whole entry): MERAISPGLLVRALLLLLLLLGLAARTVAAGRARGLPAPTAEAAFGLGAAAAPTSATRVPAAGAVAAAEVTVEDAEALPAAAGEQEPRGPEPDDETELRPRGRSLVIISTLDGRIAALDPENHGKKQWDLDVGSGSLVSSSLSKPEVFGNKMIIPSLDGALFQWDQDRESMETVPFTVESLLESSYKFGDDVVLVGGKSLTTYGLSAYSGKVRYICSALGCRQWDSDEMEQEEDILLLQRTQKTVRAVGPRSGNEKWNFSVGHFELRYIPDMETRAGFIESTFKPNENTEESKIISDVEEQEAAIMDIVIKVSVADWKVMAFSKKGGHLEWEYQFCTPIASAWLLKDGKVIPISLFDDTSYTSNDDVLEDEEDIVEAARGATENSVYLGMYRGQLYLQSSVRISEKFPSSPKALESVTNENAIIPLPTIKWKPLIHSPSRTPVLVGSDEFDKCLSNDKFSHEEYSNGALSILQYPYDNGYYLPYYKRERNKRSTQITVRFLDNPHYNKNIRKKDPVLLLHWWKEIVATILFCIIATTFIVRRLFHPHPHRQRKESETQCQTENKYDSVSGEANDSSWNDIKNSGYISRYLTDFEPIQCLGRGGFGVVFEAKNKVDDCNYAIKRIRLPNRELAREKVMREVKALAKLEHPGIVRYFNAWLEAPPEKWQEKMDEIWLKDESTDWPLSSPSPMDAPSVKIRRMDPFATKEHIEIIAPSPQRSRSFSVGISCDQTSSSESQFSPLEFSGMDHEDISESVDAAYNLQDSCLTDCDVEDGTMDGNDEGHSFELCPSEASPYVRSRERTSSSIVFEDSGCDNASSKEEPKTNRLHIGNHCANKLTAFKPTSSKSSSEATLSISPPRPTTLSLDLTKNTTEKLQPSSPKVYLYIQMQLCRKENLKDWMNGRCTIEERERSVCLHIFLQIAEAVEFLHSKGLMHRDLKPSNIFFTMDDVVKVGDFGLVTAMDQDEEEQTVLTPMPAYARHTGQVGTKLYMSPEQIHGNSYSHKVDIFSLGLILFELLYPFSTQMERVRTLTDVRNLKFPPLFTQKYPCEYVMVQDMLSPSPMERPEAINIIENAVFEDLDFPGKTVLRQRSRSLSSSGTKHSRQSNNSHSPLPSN
# [9] = target: T1, Eukaryotic translation initiation factor 2-alpha kinase 3; experiment: Counterscreen assay for PERK inhibitors: Dose response cell-based high throughput screening assay to measure inhibition of PERK at 6 hours. [Related pubchem assays: 1522, 1416 ]; assay type: functional
# [10] = Luminescence Cell-Based Dose Response HTS to Identify Inhibitors of 5'UTR Stem-Loop Driven Prion Protein mRNA Translation in H4 Neuroglioblastoma Cells. [Related pubchem assays: 1827 (Project Summary), 1813 (Primary HTS)]; assay type: functional
# [11] = inhibitors of firefly luciferase expression or activity, dose response, H4 neuroglioma cells, luminescence (AID 1990); assay type: functional, cell-based
# [12] = cytotoxicity toward NIH3T3 fibroblasts, dose response, counter-screen, cell-based, ATP luminescence, mouse fibroblasts (AID 2010); assay type: functional;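 also: cells exposed to compound for about 90 hours before reading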
# [13] = inhibitors of intracellular T. cruzi replication, confirmation, NIH3T3 host cells, beta-gal luminescence (AID 2044); assay type: functional, cell-based;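 also: intracellular parasites grown in NIH/3T3 mouse fibroblasts as host cells; luminescent beta-galactosidase reporter signal from transgenic T. cruzi replicating inside host cells; inhibitors lower the luminescence signal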
# [14] = inhibitors of SNCA 5'UTR-driven reporter translation, confirmation, H4 neuroglioma cells, luminescence (AID 1988); assay type: functional, cell-based
# [15] = target: G-protein coupled receptor 35 (Homo sapiens, UniProt Q9HC97); experiment: GPR35 antagonists blocking zaprinast-driven arrestin recruitment, primary screen, imaging, U2OS, beta-arrestin-GFP, zaprinast agonist (AID 2058); assay type: functional;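 also: antagonist potency meaning inhibition of agonist-induced arrestin redistribution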
# Chain of G-protein coupled receptor 35 (Q9HC97 whole entry): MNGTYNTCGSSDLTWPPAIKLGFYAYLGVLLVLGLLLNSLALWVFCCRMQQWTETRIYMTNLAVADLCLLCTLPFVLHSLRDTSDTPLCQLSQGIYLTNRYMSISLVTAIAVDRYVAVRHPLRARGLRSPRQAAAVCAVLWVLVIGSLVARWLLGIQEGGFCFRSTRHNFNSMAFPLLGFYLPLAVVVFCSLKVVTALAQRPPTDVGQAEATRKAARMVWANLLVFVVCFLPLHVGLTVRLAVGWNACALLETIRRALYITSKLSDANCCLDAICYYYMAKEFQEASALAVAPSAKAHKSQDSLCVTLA
# [16] = target: T2, Ubiquitin-conjugating enzyme E2 N (Homo sapiens, UniProt P61088); assay type: functional;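 also: Dose-response confirmation in a TR-FRET assay detecting UBC13-driven polyubiquitin chain formation, inhibition measured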
# T2 sequence (P61088 whole entry): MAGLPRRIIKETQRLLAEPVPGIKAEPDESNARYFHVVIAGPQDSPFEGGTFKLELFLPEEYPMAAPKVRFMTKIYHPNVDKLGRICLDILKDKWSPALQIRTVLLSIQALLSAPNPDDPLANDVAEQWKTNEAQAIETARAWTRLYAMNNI
# [17] = cells
# [18] = A cytotoxicity screen of small molecule inhibitors of the PhoP region in Salmonella typhi identified in the primary screen. [Related pubchem assays: 1850, 1864, 1985 ]; assay type: functional
# [19] = target: Mothers against decapentaplegic homolog 3 (Homo sapiens, UniProt P84022); experiment: Smad3 binding inhibitors, lysate ELISA, dose response, cell lysate, secondary confirmation, chemiluminescent ELISA, HEK293 lysate (AID 1058); assay type: functional
# Chain of Mothers against decapentaplegic homolog 3 (P84022 whole entry): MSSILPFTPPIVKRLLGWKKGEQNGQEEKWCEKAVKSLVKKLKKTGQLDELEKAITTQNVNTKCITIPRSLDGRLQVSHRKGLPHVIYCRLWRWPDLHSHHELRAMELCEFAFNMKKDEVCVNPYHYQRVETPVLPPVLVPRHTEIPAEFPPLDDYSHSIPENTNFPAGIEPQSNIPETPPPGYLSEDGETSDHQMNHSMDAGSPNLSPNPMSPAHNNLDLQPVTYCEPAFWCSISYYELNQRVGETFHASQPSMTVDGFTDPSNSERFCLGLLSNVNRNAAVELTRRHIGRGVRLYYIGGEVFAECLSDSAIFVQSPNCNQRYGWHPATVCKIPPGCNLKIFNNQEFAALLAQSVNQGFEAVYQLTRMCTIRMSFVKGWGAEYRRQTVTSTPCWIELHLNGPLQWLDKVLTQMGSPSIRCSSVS
# [20] = target: NS3 (Hepatitis C virus, UniProt A3EZJ3); experiment: PubChem AID 2173; set-up: species or system Hepacivirus hominis
# Chain of NS3 (A3EZJ3 whole entry): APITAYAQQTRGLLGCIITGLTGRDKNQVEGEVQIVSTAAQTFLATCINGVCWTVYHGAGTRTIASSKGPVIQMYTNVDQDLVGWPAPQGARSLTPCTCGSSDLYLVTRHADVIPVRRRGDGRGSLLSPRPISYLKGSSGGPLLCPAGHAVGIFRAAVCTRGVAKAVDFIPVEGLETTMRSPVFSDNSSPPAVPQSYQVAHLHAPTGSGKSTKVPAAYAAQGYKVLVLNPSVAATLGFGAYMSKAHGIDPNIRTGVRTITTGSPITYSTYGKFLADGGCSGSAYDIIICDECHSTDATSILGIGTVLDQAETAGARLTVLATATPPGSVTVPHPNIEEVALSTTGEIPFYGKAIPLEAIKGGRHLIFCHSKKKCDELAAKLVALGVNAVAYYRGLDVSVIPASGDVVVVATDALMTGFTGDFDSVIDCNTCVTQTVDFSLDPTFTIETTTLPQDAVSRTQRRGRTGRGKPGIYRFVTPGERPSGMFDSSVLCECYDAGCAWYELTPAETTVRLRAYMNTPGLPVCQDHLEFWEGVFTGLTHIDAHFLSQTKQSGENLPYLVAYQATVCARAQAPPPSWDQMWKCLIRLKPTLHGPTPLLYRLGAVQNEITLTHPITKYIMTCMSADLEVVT
# [21] = target: Beta-galactosidase (Escherichia coli, UniProt Q8VNN2); experiment: beta-galactosidase enzyme inhibitors and activators, dose response, artefact control for CCR6 antagonist project, biochemical, E. coli enzyme, set 3 (AID 504712); assay type: functional
# Chain of Beta-galactosidase (Q8VNN2 whole entry): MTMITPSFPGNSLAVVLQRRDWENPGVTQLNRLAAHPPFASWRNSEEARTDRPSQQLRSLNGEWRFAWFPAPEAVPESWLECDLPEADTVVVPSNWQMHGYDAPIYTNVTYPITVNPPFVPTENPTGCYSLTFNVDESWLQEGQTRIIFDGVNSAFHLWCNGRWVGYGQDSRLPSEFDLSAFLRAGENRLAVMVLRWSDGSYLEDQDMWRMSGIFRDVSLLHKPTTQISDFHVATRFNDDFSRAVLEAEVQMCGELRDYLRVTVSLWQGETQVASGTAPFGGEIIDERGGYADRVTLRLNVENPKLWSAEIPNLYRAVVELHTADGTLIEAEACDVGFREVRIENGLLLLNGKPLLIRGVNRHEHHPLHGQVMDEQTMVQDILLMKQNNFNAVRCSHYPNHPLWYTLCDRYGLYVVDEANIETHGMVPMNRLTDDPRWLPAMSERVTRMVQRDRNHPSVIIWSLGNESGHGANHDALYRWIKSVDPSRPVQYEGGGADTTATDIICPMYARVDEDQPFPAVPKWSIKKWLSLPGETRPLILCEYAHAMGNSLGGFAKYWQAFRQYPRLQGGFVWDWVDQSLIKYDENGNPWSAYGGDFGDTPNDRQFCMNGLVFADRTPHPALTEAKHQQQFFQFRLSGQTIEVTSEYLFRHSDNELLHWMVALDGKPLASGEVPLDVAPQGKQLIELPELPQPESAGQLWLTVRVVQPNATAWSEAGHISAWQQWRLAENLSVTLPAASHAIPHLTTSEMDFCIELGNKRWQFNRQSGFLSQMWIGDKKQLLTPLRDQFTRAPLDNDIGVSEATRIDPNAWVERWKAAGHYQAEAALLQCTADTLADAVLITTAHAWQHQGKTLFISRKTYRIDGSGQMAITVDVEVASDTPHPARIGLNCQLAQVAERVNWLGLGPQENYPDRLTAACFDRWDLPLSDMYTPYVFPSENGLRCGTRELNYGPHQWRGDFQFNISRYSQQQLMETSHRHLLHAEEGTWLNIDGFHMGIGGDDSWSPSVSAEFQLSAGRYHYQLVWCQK
# [22] = target: C-C chemokine receptor type 6 (Homo sapiens, UniProt P51684); experiment: CCR6 receptor antagonists, dose response, cell-based, luminescent beta-arrestin readout (AID 504728); assay type: functional
# [23] = target: Protein Rev (Human immunodeficiency virus type 1 group M subtype B (isolate WMJ22)(HIV-1), UniProt P05866); experiment: HIV-1 Rev-RRE RNA binding disruptors, dose response, biochemical, protein-RNA interaction (AID 842); set-up: species or system Human immunodeficiency virus 1
# Chain of Protein Rev (P05866 whole entry): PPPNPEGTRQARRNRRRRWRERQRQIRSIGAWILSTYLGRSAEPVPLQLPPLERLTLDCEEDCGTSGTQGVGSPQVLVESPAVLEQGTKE
# [24] = target: Lysosomal acid glucosylceramidase (Homo sapiens, UniProt P04062); experiment: Dose response cell-based high throughput screening assay to identify enhancers of beta-glucosidase activity. [Related pubchem assays: 784 ]; assay type: functional
# Chain of Lysosomal acid glucosylceramidase (P04062 whole entry): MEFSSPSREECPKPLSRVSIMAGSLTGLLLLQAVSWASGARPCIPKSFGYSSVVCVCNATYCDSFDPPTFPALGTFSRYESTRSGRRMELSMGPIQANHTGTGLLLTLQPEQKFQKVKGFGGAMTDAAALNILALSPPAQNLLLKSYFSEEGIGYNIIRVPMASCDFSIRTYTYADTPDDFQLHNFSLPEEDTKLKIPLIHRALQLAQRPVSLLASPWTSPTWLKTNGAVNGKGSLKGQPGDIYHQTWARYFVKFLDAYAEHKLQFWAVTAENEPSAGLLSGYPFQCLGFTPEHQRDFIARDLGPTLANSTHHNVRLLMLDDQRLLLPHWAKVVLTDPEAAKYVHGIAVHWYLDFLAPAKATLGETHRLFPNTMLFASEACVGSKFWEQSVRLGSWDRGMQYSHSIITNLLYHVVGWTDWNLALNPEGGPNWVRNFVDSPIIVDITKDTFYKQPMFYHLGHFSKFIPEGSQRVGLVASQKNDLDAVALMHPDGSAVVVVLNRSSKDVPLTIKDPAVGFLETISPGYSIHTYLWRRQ
# [25] = target: Acyl-homoserine lactone acylase PvdQ (Pseudomonas aeruginosa (strain LESB58), UniProt Q9I194); experiment: P. aeruginosa PvdQ acylase inhibitors, dose response, biochemical, fluorescence, plate reader and imaging, cherry-picks (AID 493231)
# Chain of Acyl-homoserine lactone acylase PvdQ (Q9I194 24-193 limits assumed): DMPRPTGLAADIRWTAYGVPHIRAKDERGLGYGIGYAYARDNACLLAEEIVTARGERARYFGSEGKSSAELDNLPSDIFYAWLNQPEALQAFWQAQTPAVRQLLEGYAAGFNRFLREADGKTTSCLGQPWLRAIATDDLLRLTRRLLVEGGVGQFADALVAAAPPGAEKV
# Chain of Acyl-homoserine lactone acylase PvdQ (Q9I194 217-762 limits assumed): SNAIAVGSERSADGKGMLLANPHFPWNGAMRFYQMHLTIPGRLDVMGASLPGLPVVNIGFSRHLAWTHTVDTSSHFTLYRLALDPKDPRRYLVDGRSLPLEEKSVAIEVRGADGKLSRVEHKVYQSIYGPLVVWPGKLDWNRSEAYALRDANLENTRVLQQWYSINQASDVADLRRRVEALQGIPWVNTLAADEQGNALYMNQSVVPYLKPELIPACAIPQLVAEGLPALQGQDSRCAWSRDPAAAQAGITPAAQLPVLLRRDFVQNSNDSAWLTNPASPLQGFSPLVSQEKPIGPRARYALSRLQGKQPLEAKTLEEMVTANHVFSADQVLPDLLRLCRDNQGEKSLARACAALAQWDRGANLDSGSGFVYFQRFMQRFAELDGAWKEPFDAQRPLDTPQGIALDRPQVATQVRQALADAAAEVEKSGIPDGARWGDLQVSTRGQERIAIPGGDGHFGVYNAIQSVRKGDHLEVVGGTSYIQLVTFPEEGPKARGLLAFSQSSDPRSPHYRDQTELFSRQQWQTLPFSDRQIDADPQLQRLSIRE
compound,measurement,setting,value
CC1CCN(CCCNC(=O)c2cc3c(s2)-c2ccccc2OC3)CC1,CC50,[1],26.2 µM (active)
same,CC50,[2],19.5 µM (active)
same,IC50,[3],> 40 µM (active)
same,CC50,[4],> 100 µM (active)
same,IC50,[5],18.2 µM (active)
same,CC50,[6],> 66.6 µM (active)
same,IC50,[7],25.1 µM (active)
CCSc1nnc(NC(=O)c2cc(-c3ccccc3O)[nH]n2)s1,EC50,[8],> 55.7 µM (not active)
same,EC50,[9],> 55.7 µM (not active)
CCN(CC)CCCNc1ccc(-c2nnc(-c3ccc(OCC(C)C)cc3)o2)cn1,EC50,[10],13.5 µM (active)
same,EC50,[11],> 120 µM (not active)
same,EC50,[12],4.75 µM (active)
same,EC50,[13],< 0.1 µM (active)
same,EC50,[14],> 30 µM (not active)
same,IC50,[15],1.96 µM (active)
same,IC50,[16],> 20 µM (inactive)
same,EC50,[17],0.394 µM (active)
CC(C)(C)n1nc2c(c1NC(=O)c1ccccc1)CS(=O)(=O)C2,EC50,[18],> 50 µM (active)
COc1cc(C(c2cc3c(cc2O)OCO3)N2CCOCC2)cc(OC)c1OC (stereo not given),IC50,[19],9.66 µM (not active)
Cc1ccc(C(CCN(Cc2ccccc2)C(=O)c2ccco2)c2ccco2)cc1 (stereo not given),IC50,[20],8.82 µM (active)
same,IC50,[21],> 66.6 µM (inactive)
same,IC50,[22],> 66.6 µM (inactive)
O=C(CN1C2=NCCN2c2ccccc21)c1ccc(Br)cc1,IC50,[23],> 79.4 µM (not active)
Cc1ccc(-n2c(=O)c(C#N)cc3c(=O)n4ccccc4nc32)cc1,EC50,[24],> 50 µM (not active)
Clc1ccc2scc(CN3CCCC3)c2c1,AC50,[25],2.66 µM (active)
